Results reported in patent publication US11274083B2, “Substituted thiophenyl uracils, salts thereof and the use thereof as herbicidal agents” (Syngenta Crop Protection AG, priority 2017, dated 2022).

How the values were obtained:
Assay type in all cases: in vivo
[1] = system: Oryza sativa; experiment: Crop compatibility post-emergence, greenhouse pot test
Procedure: (§1) Seeds of mono- and dicotyledonous weed plants and crop plants were laid out in sandy loam soil in plastic or wood-fiber pots, covered with soil and grown under controlled growth conditions in a greenhouse. 2 to 3 weeks after sowing, the trial plants were treated at the one-leaf stage. The compounds of the invention formulated in the form of wettable powders (WP) or as emulsion concentrates (EC) were then sprayed onto the green parts of the plant as an aqueous suspension or emulsion with addition of 0.5% additive at a water application rate equivalent to 600 L/ha. After the trial plants had stood for about 3 weeks in the greenhouse, under optimal growth conditions, the effect of the preparations was scored visually by comparison with untreated controls. For example, 100% efficacy=plants have died, 0% efficacy=like control plants.
(§2) Crop plant compatibilities were also scored correspondingly.
(§3) The effects observed are reported here on selected crop plants by comparison, with the untreated controls (values in %).

[2] = system: Amaranthus retroflexus; experiment: Herbicidal action post-emergence, greenhouse pot test; settings: application rate 20 g/ha
Procedure: as §1, with “plants. Tables A1 to A16 below show the efficacies of selected compounds of the general formula (I) according to tables I.1 to I.50 on various harmful plants and an application rate corresponding to 80 g/ha or lower that were obtained by the aforementioned trial method.” for “plants.”

[3] = system: Abutilon theophrasti; experiment: as above; settings: application rate 20 g/ha
Procedure: as §1, with “plants. Tables A1 to A16 below show the efficacies of selected compounds of the general formula (I) according to tables I.1 to I.50 on various harmful plants and an application rate corresponding to 80 g/ha or lower that were obtained by the aforementioned trial method.” for “plants.”

[4] = system: Viola tricolor; experiment: as above; settings: application rate 20 g/ha
Procedure: as §1, with “plants. Tables A1 to A16 below show the efficacies of selected compounds of the general formula (I) according to tables I.1 to I.50 on various harmful plants and an application rate corresponding to 80 g/ha or lower that were obtained by the aforementioned trial method.” for “plants.”

[5] = system: Setaria viridis; experiment: as above; settings: application rate 20 g/ha
Procedure: as §1, with “plants. Tables A1 to A16 below show the efficacies of selected compounds of the general formula (I) according to tables I.1 to I.50 on various harmful plants and an application rate corresponding to 80 g/ha or lower that were obtained by the aforementioned trial method.” for “plants.”

[6] = system: Veronica persica; experiment: as above
Procedure: as §1, with “plants. Tables A1 to A16 below show the efficacies of selected compounds of the general formula (I) according to tables I.1 to I.50 on various harmful plants and an application rate corresponding to 80 g/ha or lower that were obtained by the aforementioned trial method.” for “plants.”

[7] = system: Stellaria media; experiment: as above; settings: application rate 20 g/ha
Procedure: as §1, with “plants. Tables A1 to A16 below show the efficacies of selected compounds of the general formula (I) according to tables I.1 to I.50 on various harmful plants and an application rate corresponding to 80 g/ha or lower that were obtained by the aforementioned trial method.” for “plants.”

[8] = system: Matricaria inodora; experiment: as above; settings: application rate 20 g/ha
Procedure: as §1, with “plants. Tables A1 to A16 below show the efficacies of selected compounds of the general formula (I) according to tables I.1 to I.50 on various harmful plants and an application rate corresponding to 80 g/ha or lower that were obtained by the aforementioned trial method.” for “plants.”

[9] = system: Digitaria sanguinalis; experiment: as above; settings: application rate 20 g/ha
[10] = system: Echinochloa crus-galli; experiment: as above; settings: application rate 20 g/ha
Procedure: as §1, with “plants. Tables A1 to A16 below show the efficacies of selected compounds of the general formula (I) according to tables I.1 to I.50 on various harmful plants and an application rate corresponding to 80 g/ha or lower that were obtained by the aforementioned trial method.” for “plants.”

[11] = system: Triticum aestivum; experiment: Crop compatibility post-emergence, greenhouse pot test
Procedure: as §1, §2, §3

[12] = system: Pharbitis purpurea; experiment: Herbicidal action post-emergence, greenhouse pot test; settings: application rate 20 g/ha
Procedure: as §1, with “plants. Tables A1 to A16 below show the efficacies of selected compounds of the general formula (I) according to tables I.1 to I.50 on various harmful plants and an application rate corresponding to 80 g/ha or lower that were obtained by the aforementioned trial method.” for “plants.”

[13] = system: Polygonum convolvulus; experiment: as above
Procedure: as §1, with “plants. Tables A1 to A16 below show the efficacies of selected compounds of the general formula (I) according to tables I.1 to I.50 on various harmful plants and an application rate corresponding to 80 g/ha or lower that were obtained by the aforementioned trial method.” for “plants.”

| Structure (SMILES) | Oryza sativa (Efficacy in %) ([1]; application rate 20 g/ha) [%] | Amaranthus retroflexus (Efficacy in %) [2] [%] | Abutilon theophrasti (Efficacy in %) [3] [%] | Viola tricolor (Efficacy in %) [4] [%] | Setaria viridis (Efficacy in %) [5] [%] | Veronica persica (Efficacy in %) ([6]; application rate 20 g/ha) [%] | Stellaria media (Efficacy in %) [7] [%] | Matricaria inodora (Efficacy in %) [8] [%] | Digitaria sanguinalis (Efficacy in %) [9] [%] | Echinochloa crus-galli (Efficacy in %) [10] [%] | Triticum aestivum (Efficacy in %) ([11]; application rate 5 g/ha) [%] | Pharbitis purpurea (Efficacy in %) [12] [%] | Polygonum convolvulus (Efficacy in %) ([13]; application rate 20 g/ha) [%] | Triticum aestivum (Efficacy in %) ([11]; application rate 20 g/ha) [%] | Oryza sativa (Efficacy in %) ([1]; application rate 5 g/ha) [%] | Veronica persica (Efficacy in %) ([6]; application rate 5 g/ha) [%] | Polygonum convolvulus (Efficacy in %) ([13]; application rate 5 g/ha) [%] |
| --- | --- | --- | --- | --- | --- | --- | --- | --- | --- | --- | --- | --- | --- | --- | --- | --- | --- |
| CCOC(=O)CCOC(=O)C(Sc1cc(-n2c(=O)cc(C(F)(F)F)n(C)c2=O)c(F)cc1Cl)C(C)C (stereo not shown) [I.6-3, 3-Ethoxy-3-oxopropyl 2-({2-chloro-4-fluoro-5-[3-methyl-2,6-dioxo-4-(trifluoromethyl)-3,6-dihydropyrimidin-1(2H)-yl]phenyl}sulfanyl)-3-methylbutanoate] | 20 | 100 | 100 | 100 | 100 | 100 | 100 | 100 | 100 |  |  |  |  |  |  |  |  |
| CCOC(=O)C1(COC(=O)C(C)Sc2cc(-n3c(=O)cc(C(F)(F)F)n(C)c3=O)c(F)cc2Cl)CCOCC1 (stereo not shown) [I.1-293] |  | 100 | 100 | 100 | 90 | 100 | 100 | 100 | 100 | 90 |  |  |  |  |  |  |  |
| CCCCOC(=O)COC(=O)C(C)Sc1cc(-n2c(=O)cc(C(F)(F)F)n(C)c2=O)c(F)cc1Cl (stereo not shown) [I.1-51] |  | 100 | 100 | 100 | 100 | 100 | 100 | 100 | 90 | 100 | 0 | 100 | 100 |  |  |  |  |
| CCOC(=O)COC(=O)C(CC(C)C)Sc1cc(-n2c(=O)cc(C(F)(F)F)n(C)c2=O)c(F)cc1Cl (stereo not shown) [I.4-43] | 10 | 100 | 100 | 100 |  | 100 | 80 | 90 |  |  |  |  | 100 | 10 |  |  |  |
| CCOC(=O)COC(=O)C(COC)Sc1cc(-n2c(=O)cc(C(F)(F)F)n(C)c2=O)c(F)cc1Cl (stereo not shown) [I.7-43] |  |  |  |  |  |  |  |  | 100 |  |  |  |  |  |  |  |  |
| CC(Sc1cc(-n2c(=O)cc(C(F)(F)F)n(C)c2=O)c(F)cc1Cl)C(=O)OCC1CCC(=O)O1 (stereo not shown) [I.1-145] |  |  |  |  |  |  |  |  |  |  |  |  |  |  | 20 |  |  |
| CCOC(=O)COC(=O)CSc1cc(-n2c(=O)cc(C(F)(F)F)n(C)c2=O)c(F)cc1Cl [I.8-43] |  | 100 | 100 | 100 | 100 | 100 | 80 | 100 |  | 90 | 10 | 100 | 100 |  |  |  |  |
| CCOC(=O)CCOC(=O)C(CC(C)C)Sc1cc(-n2c(=O)cc(C(F)(F)F)n(C)c2=O)c(F)cc1Cl (stereo not shown) [I.4-3, 3-Ethoxy-3-oxopropyl 2-({2-chloro-4-fluoro-5-[3-methyl-2,6-dioxo-4-(trifluormethyl)-3,6-dihydropyrimidin-1(2H)-yl]phenyl}sulfanyl)-4-methylpentanoate] |  | 100 | 100 | 100 | 90 | 80 |  | 80 |  |  |  |  |  |  |  |  |  |
| CCOC(=O)COC(=O)C(Sc1cc(-n2c(=O)cc(C(F)(F)F)n(C)c2=O)c(F)cc1Cl)C(C)C (stereo not shown) [I.6-43, 2-Ethoxy-2-oxoethyl 2-({2-chloro-4-fluoro-5-[3-methyl-2,6-dioxo-4-(trifluoromethyl)-3,6-dihydropyrimidin-1(2H)-yl]phenyl}sulfanyl)-3-methylbutanoate] | 0 |  | 100 | 100 |  |  | 90 |  |  |  |  |  |  |  |  | 100 |  |
| CCC(Sc1cc(-n2c(=O)cc(C(F)(F)F)n(C)c2=O)c(F)cc1Cl)C(=O)OCC1CCC(=O)O1 (stereo not shown) [I.2-145, (5-Oxotetrahydrofuran-2-yl)methyl 2-({2-chloro-4-fluoro-5-[3-methyl-2,6-dioxo-4-(trifluoromethyl)-3,6-dihydropyrimidin-1(2H)-yl]phenyl}sulfanyl)butanoate] | 0 | 100 | 100 | 100 | 100 | 100 | 100 | 100 | 100 | 100 |  |  | 100 | 20 |  |  |  |
| CC(C)OC(=O)COC(=O)CSc1cc(-n2c(=O)cc(C(F)(F)F)n(C)c2=O)c(F)cc1Cl [I.8-44] |  | 100 | 100 | 100 | 100 | 100 | 100 | 100 |  |  | 20 | 100 |  |  |  |  | 100 |
| Cn1c(C(F)(F)F)cc(=O)n(-c2cc(SCC(=O)OCC(=O)OCc3ccccc3)c(Cl)cc2F)c1=O [I.8-46] |  | 100 | 100 | 100 | 100 | 100 | 100 | 100 |  | 90 | 20 | 100 | 100 |  |  |  |  |
| CCOC(=O)CCOC(=O)C(C)Sc1cc(-n2c(=O)c(C)c(C(F)(F)F)n(C)c2=O)c(F)cc1Cl (stereo not shown) [I.11-3] | 10 |  | 100 | 90 |  |  | 100 | 90 |  | 100 | 10 |  |  |  |  |  |  |
